Data published in paper PMC9229843, “Cancer-Related Somatic Mutations in Transmembrane Helices Alter Adenosine A1 Receptor Pharmacology” (Molecules, 2022).

Target: T1, hA1AR G279S^7.44 (Homo sapiens, UniProt P30542, G279S)
T1 sequence (P30542 1-326 G279S): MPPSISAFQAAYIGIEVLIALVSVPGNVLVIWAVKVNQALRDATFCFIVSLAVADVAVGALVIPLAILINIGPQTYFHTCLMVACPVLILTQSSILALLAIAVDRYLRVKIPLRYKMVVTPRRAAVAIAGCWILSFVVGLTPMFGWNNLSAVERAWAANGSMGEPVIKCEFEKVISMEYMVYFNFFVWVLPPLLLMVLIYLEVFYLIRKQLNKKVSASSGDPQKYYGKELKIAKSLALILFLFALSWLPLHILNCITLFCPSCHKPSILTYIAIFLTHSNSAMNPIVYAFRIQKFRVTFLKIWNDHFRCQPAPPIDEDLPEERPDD
Assay: [3H]DPCPX radioligand displacement assay, CHO membranes
Type: binding
Design: HA; expressed in transfected cells; host or cells: CHO cells, transient PEI transfection; membranes prepared
Conditions: fraction of high-affinity state; two-site model
Protocol: Transient transfection of CHO cells with wild type or mutated hA1AR plasmid constructs was performed using a polyethylenimine (PEI) method. Cells were seeded in 10-cm culture dishes to achieve 50–60% confluency 24 h prior to transfection. On the day of transfection, cells were transfected with a PEI: DNA ratio of 3:1 and a plasmid DNA amount of 10 μg/dish. Moreover, 24 h post-transfection, the medium was refreshed, and 48 h after transfection, cells were collected and membranes were prepared as previously described. Membranes were aliquoted in 250 or 100 μL and stored at −80 °C. Membrane protein concentrations were determined using the BCA method.
The displacement assays were performed as described previously. […] After the addition of 25 µL per well of the Microscint scintillation cocktail (PerkinElmer, Groningen, The Netherlands), the filter-bound radioactivity was measured by scintillation spectrometry in a Microbeta2® 2450 microplate counter (PerkinElmer).
All experimental data were analyzed by GraphPad Prism 7.0 or 8.0 (GraphPad Software Inc., San Diego, CA, USA). Data from yeast liquid growth and [^35S]GTPγS binding assays were analyzed by non-linear regression using “log (agonist) vs. response (three parameters)” or “log (inhibitor) vs. response (three parameters)” to obtain potency (EC50), inhibitory potency (IC50), and efficacy (Emax or Imax) values. […]

Structure (SMILES): OC[C@H]1O[C@@H](n2cnc3c(NC4CCCC4)ncnc32)[C@H](O)[C@@H]1O [CPA, N^6-cyclopentyladenosine]
- Fraction (High): 0.17 ± 0.04
